Measured values taken from patent US20050158280A1, “Method of reducing angiogenesis” (priority 2001, published 2005).

Legend:
CD39 mRNA = details: HUVEC, 48 h post-transfection; vs scrambled oligonucleotides and control liposomes; cited from earlier work
CD39 = details: HUVEC, cited from earlier work; for immunoreactive intact CD39 (densitometric analysis of Western blot): 48 h after transfection, control liposomes = 100%
ATPDase/CD39 [1] = details: cited from earlier work; for Specific ADPase activity / ATPase activity: HUVEC lysate, n=6; for Specific ADPase activity: mean SD, control liposomes 26.0±3.1; for ATPase activity: control liposomes 28.2±4.6
ATPDase/CD39 [2] = details: COS-7 cells; cited from earlier work
HUVEC [3] = details: cited from earlier work; for rate of ATP hydrolysis by EC: HUVEC after transfection, n=9, liposome treated controls 17.9
HUVEC [4] = details: cited from earlier work
peritoneal macrophages = experiment: Cytofluorometric (FACS) analysis of macrophage integrin/ICAM-1 surface expression; assay type: cell-based, mouse; details: 200 μmol/L, vs control; for αmβ2 (MAC-1) and ICAM-1 coexpression levels: quiescent cd39-null macrophages; for cell surface coexpression of αmβ2 (MAC-1) and ICAM-1: wild-type macrophages, 30 minutes
Description: After isolation, naive peritoneal macrophages were also stimulated for 30 minutes (or for 24 hours) in RPMI+5% FCS, both at 37° C., with ATP 200 μmol/L, or with ATPγS 200 μmol/L, and then washed with PBS. Nonspecific binding of isospecific IgG was controlled by incubation with isospecific IgG conjugated to FITC and phycoerythrin, respectively. Cells were double-stained with phycoerythrin-conjugated rat anti-mouse CD11b in conjunction with FITC-labeled anti-mouse intercellular adhesion molecule (ICAM)-1 (or very late antigen-1, -4), respectively. Fluorescence-activated cell sorter (FACS) analysis was performed (FACSCAN™, Becton Dickinson). Data were analyzed with CELLQUEST™ computer software (Becton Dickinson).

monocyte/macrophages = experiment: Transmigration of monocyte/macrophages through an endothelial cell monolayer; assay type: cell-based, mouse
Description: (§1) Transmigration assays through an endothelial cell monolayer were performed (Jones, G. E. J. Leukoc. Biol. 68:593-602, 2000). Murine 2F2B endothelial cells (ATCC) were plated on collagen type 1-coated polycarbonate inserts with 3-μm pores (Costar, Fisher Scientific) and then incubated in RPMI containing 5% FCS overnight to attain full confluence. Wild-type or cd39-null peritoneal macrophages were added to the upper chamber and incubated at 37° C. in 5% CO2 for 10 hours. In the lower chamber, culture media with chemoattractant factors at various combinations were added: ATP 200 μmol/L, serotonin 20 μmol/L, and monocyte chemoattractant factor-1 (MCP-1) 50 ng/mL. Nonadherent cells in both supernatant fluids were counted. In parallel experiments, inserts were precoated with collagen or MATRIGEL® alone. Wild-type and cd39-null macrophages were plated on the upper surface of coated inserts. Cells were allowed to adhere and migrate over a 6-hour period. Cells on the lower surface were fixed in 2% ethanol and stained with 0.2% crystal violet (Sigma). Four fields of vision (×400) per well were randomly chosen, and cell counts were performed manually by 2 observers in a blinded fashion.

macrophages = experiment: Transmigration of macrophages on MATRIGEL-coated Transwell membranes; assay type: cell-based, mouse; details: for migration through MATRIGEL (FIG. 5, in words): cd39-null knockout (KO) macrophages; for number of transmigrated macrophages (normalized to wild-type): cd39-null macrophages, nonstimulated null 80±30.0% of wild-type; for number of transmigrated macrophages (normalized to wild-type) / number of transmigrated macrophages (normalized): MATRIGEL-coated Transwell; for number of transmigrated macrophages (normalized): wild-type macrophages, no endothelial cells, ATP 200 μmol/L, serotonin 20 μmol/L, MCP-1 50 ng/mL
Description: as §1

[5] = cd39-null monocyte/macrophages, ATP 200 μmol/L or MCP-1 50 ng/mL, spontaneous 6200±1200
[6] = wild-type monocyte/macrophages, ATP 200 μmol/L or MCP-1 50 ng/mL in lower chamber, spontaneous 4900±400

Compound	immunoreactive intact CD39 (densitometric analysis of Western blot) (CD39) [%]	Specific ADPase activity (ATPDase/CD39 [1]) [nmole Pi/min/mg protein]	ATPase activity (ATPDase/CD39 [1]) [nmole Pi/min/mg protein]	rate of ATP hydrolysis by EC (HUVEC [3]) [pmole/min/10^6cells]	Total cell protein content (HUVEC [4])	αmβ2 (MAC-1) and ICAM-1 coexpression levels (peritoneal macrophages)	cell surface coexpression of αmβ2 (MAC-1) and ICAM-1 (peritoneal macrophages)	monocyte/macrophages migrated across the endothelial cell monolayer (monocyte/macrophages; [5])	monocyte/macrophages migrated across the endothelial cell monolayer (monocyte/macrophages; [6])	migration through MATRIGEL (FIG. 5, in words) (macrophages)	number of transmigrated macrophages (normalized to wild-type) (macrophages) [%]	number of transmigrated macrophages (normalized) (macrophages) [%]	also measured
5′-CTCCTTTGTATCTTCCATAAGTAGC-3′ (antisense CTCCTTTGTATCTTCCATAAGTAGC; chimeric second generation modifications, further chemistry not given here) [antisense oligonucleotides]	66	9.5±3.4	15.1±3.4	4.8	17.6±2.8 (g/10^6cells								CD39 mRNA expression (Northern blotting) (CD39 mRNA): specifically inhibited transcription of CD39 mRNA; apparent decrease in CD39 protein expression (qualitative Western blotting) (CD39; 48 h): approximately 40%; ATPase activity, of control levels (ATPDase/CD39 [1]; HUVEC, residual activity): 53%; ATPase activity, of that for scrambled control oligomers (ATPDase/CD39 [1]; HUVEC, residual activity): 51%; Normalized ADPase activity, compared with scrambled oligomers (ATPDase/CD39 [1]; HUVEC, residual activity): 42%; Normalized ADPase activity, of control liposomes (ATPDase/CD39 [1]; HUVEC, residual activity): 36%; ADPase levels, of control cells transfected with CD39 cDNA (ATPDase/CD39 [2]): 15%; ATPase levels, of control cells transfected with CD39 cDNA (ATPDase/CD39 [2]): approximately 5%; boost of area under curve estimates of ATP release (HUVEC [3]; ADP-stimulated HUVEC, over first 15 min, compared to controls): 194%; cell viability determined by trypan blue exclusion (HUVEC [4]): over 90%
5′-TTCGTATCTTCGCTAGCTTATACAC-3′ (TTCGTATCTTCGCTAGCTTATACAC; chemistry not given here) [scrambled control oligonucleotides]	103	22.6±2.1	29.1±1.2	19.6	17.7±1.8 (g/10^6cells								
Nc1ncnc2c1ncn2[C@@H]1O[C@H](COP(=O)(O)OP(=O)(O)OP(=O)(O)O)[C@@H](O)[C@H]1O [ATP, adenosine triphosphate]						largely unaltered	increased significantly	8,750±4,100 cells	22,300±3,300 cells	no substantial effect	108±24	230±20	
Nc1ncnc2c1ncn2[C@@H]1O[C@H](COP(=O)(O)OP(=O)(O)OP(O)(O)=S)[C@@H](O)[C@H]1O [ATPγS]						largely unaltered	increased significantly						
NCCc1c[nH]c2ccc(O)cc12 [serotonin]										no substantial effect	98±20.0	120±20	
monocyte chemoattractant factor-1 [MCP-1]								35,200±7,300 cells	61,800±23,400 cells		303±17	450±20	
